# Experiment: Solubility in oil (sesame oil, benzyl benzoate), visual observation
# Conditions: oil or lipid, thermodynamic from solid
# Procedure: Each of the Example compounds was examined for the solubility in oil (sesame oil, benzyl benzoate).
# For the specific gravity of an oil, the following values were applied. • sesame oil (specific gravity: 0.914-0.921) • benzyl benzoate (specific gravity: 1.123) • (Method)
# Example compound is measured in a microtube and an oil (sesame oil, or, benzyl benzoate) in an amount to make the concentration 10 mg/0.1 ml is added. After stirring, the solubility is evaluated by visual observation. When the compound is not dissolved, the mixture is heated, and the solubility is evaluated after cooling.
Structure (SMILES),solubility (benzyl benzoate) [mg/mL],solubility (sesame oil) [mg/mL]
"CCCCCCCCCCNC(=O)OCn1c(=O)ccc2ccc(OCCCCN3CCN(c4cccc5sccc45)CC3)cc21 [Example 34, N-decylcarbamic acid 7-[4-(4-benzo[b]thiophen-4-ylpiperazin-1-yl)butoxy]-2-oxo-2H-quinolin-1-ylmethyl ester]",> 100,–
"CCCCCCCCCCOC(=O)OCN1C(=O)CC(C)(C)c2ccc(OCCCCN3CCN(c4cccc5sccc45)CC3)cc21 [Example 156, carbonic acid 7-[4-(4-benzo[b]thiophen-4-ylpiperazin-1-yl)-butoxy]-4,4-dimethyl-2-oxo-3,4-dihydro-2H-quinolin-1-ylmethyl ester decyl ester]",> 100,> 100
"CCCCCCCCCCCC(=O)OCOc1ccc2ccc(OCCCCN3CCN(c4cccc5sccc45)CC3)cc2n1 [Example 371, 7-[4-(4-benzo[b]thiophen-4-yl-piperazin-1-yl)-butoxy]-quinolin-2-yloxymethyl dodecanoate]",> 100,–
"COC(=O)CCCNC(=O)OCn1c(=O)ccc2ccc(OCCCCN3CCN(c4cccc5sccc45)CC3)cc21 [Example 101, 4-{7-[4-(4-benzo[b]thiophen-4-ylpiperazin-1-yl)butoxy]-2-oxo-2H-quinolin-1-ylmethoxycarbonylamino}butyric acid methyl ester]",> 100,–
"CCCCCC(CCCCC)C(=O)OCn1c(=O)ccc2ccc(OCCCCN3CCN(c4cccc5sccc45)CC3)cc21 [Example 54, 2-pentylheptanoic acid 7-[4-(4-benzo[b]thiophen-4-ylpiperazin-1-yl)butoxy]-2-oxo-2H-quinolin-1-ylmethyl ester]",> 100,–
"CNC(=O)OCN1C(=O)CCc2ccc(OCCCCN3CCN(c4cccc5sccc45)CC3)cc21 [Example 46, N-methylcarbamic acid 7-[4-(4-benzo[b]thiophen-4-ylpiperazin-1-yl)butoxy]-2-oxo-3,4-dihydro-2H-quinolin-1-ylmethyl ester]",> 100,–
"O=C(OCn1c(=O)ccc2ccc(OCCCCN3CCN(c4cccc5sccc45)CC3)cc21)c1ccccc1 [Example 12, benzoic acid 7-[4-(4-benzo[o]thiophen-4-ylpiperazin-1-yl)butoxy]-2-oxo-2H-quinolin-1-ylmethyl ester]",> 100,–
"O=C(Oc1ccc2ccc(OCCCCN3CCN(c4cccc5sccc45)CC3)cc2n1)C1CCCCC1 [Example 380, 7-[4-(4-benzo[b]thiophen-4-yl-piperazin-1-yl)-butoxy]-quinolin-2-yl cyclohexanecarboxylate]",> 100,> 100
"CCCCC(C)C(=O)OCN1C(=O)CCc2ccc(OCCCCN3CCN(c4cccc5sccc45)CC3)cc21 (stereo not drawn) [Example 78, 2-methylhexanoic acid 7-[4-(4-benzo[b]thiophen-4-ylpiperazin-1-yl)butoxy]-2-oxo-3,4-dihydro-2H-quinolin-1-ylmethyl ester]",> 100,–
"CC(C)COC(=O)OCn1c(=O)ccc2ccc(OCCCCN3CCN(c4cccc5sccc45)CC3)cc21 [Example 170, carbonic acid 7-[4-(4-benzo[b]thiophen-4-ylpiperazin-1-yl)butoxy]-2-oxo-2H-quinolin-1-ylmethyl ester isobutyl ester]",> 100,–
"CCN(CC)C(=O)OCN1C(=O)CCc2ccc(OCCCCN3CCN(c4cccc5sccc45)CC3)cc21 [Example 52, N,N-diethylcarbamic acid 7-[4-(4-benzo[b]thiophen-4-ylpiperazin-1-yl)butoxy]-2-oxo-3,4-dihydro-2H-quinolin-1-ylmethyl ester]",> 100,> 100
"CCOC(=O)OCn1c(=O)ccc2ccc(OCCCCN3CCN(c4cccc5sccc45)CC3)cc21 [Example 50, carbonic acid 7-[4-(4-benzo[b]thiophen-4-ylpiperazin-1-yl)butoxy]-2-oxo-2H-quinolin-1-ylmethyl ester ethyl ester]",> 100,–
"O=C(OCN1C(=O)CCc2ccc(OCCCCN3CCN(c4cccc5sccc45)CC3)cc21)c1ccc2occc2c1 [Example 128, benzofuran-5-carboxylic acid 7-[4-(4-benzo[b]thiophen-4-ylpiperazin-1-yl)butoxy]-2-oxo-3,4-dihydro-2H-quinolin-1-ylmethyl ester]",> 100,–
O=C(NCc1ccccn1)OCn1c(=O)ccc2ccc(OCCCCN3CCN(c4cccc5sccc45)CC3)cc21 [Example 113],> 100,–
"CCCCCCCCCCCCCCCCC(=O)OCn1c(=O)ccc2ccc(OCCCCN3CCN(c4cccc5sccc45)CC3)cc21 [Example 108, heptadecanoic acid 7-[4-(4-benzo[b]thiophen-4-ylpiperazin-1-yl)butoxy]-2-oxo-2H-quinolin-1-ylmethyl ester]",> 100,–
"CCCCN(C)C(=O)OCn1c(=O)ccc2ccc(OCCCCN3CCN(c4cccc5sccc45)CC3)cc21 [Example 36, N-butyl-N-methylcarbamic acid 7-[4-(4-benzo[b]thiophen-4-ylpiperazin-1-yl)butoxy]-2-oxo-2H-quinolin-1-ylmethyl ester]",> 100,–

Structure (SMILES),solubility (benzyl benzoate) [mg/mL],solubility (sesame oil) [mg/mL]
"CCCCCCCCCC(=O)OCn1c(=O)ccc2ccc(OCCCCN3CCN(c4cccc5sccc45)CC3)cc21 [Example 59, decanoic acid 7-[4-(4-benzo[b]thiophen-4-ylpiperazin-1-yl)butoxy]-2-oxo-2H-quinolin-1-ylmethyl ester]",> 100,–
"CCCCCCCCCCCCCCCCCCN(C)C(=O)OCn1c(=O)ccc2ccc(OCCCCN3CCN(c4cccc5sccc45)CC3)cc21 [Example 44, N-methyl-N-octadecylcarbamic acid 7-[4-(4-benzo[b]thiophen-4-ylpiperazin-1-yl)butoxy]-2-oxo-2H-quinolin-1-ylmethyl ester]",> 100,> 100
"CCCCCCCCCCCCCCCCCC(=O)OCn1c(=O)ccc2ccc(OCCCCN3CCN(c4cccc5sccc45)CC3)cc21 [Example 60, octadecanoic acid 7-[4-(4-benzo[b]thiophen-4-ylpiperazin-1-yl)butoxy]-2-oxo-2H-quinolin-1-ylmethyl ester]",> 100,> 100
"O=C(NCCC(F)(F)F)OCn1c(=O)ccc2ccc(OCCCCN3CCN(c4cccc5sccc45)CC3)cc21 [Example 139, N-(3,3,3-trifluoropropyl)carbamic acid 7-[4-(4-benzo[b]thiophen-4-ylpiperazin-1-yl)butoxy]-2-oxo-2H-quinolin-1-ylmethyl ester]",> 100,–
"O=C(OCN1C(=O)CCc2ccc(OCCCCN3CCN(c4cccc5sccc45)CC3)cc21)c1cccnc1 [Example 132, nicotinic acid 7-[4-(4-benzo[b]thiophen-4-ylpiperazin-1-yl)butoxy]-2-oxo-3,4-dihydro-2H-quinolin-1-ylmethyl ester]",> 100,–
"CC(=O)OCN1C(=O)CCc2ccc(OCCCCN3CCN(c4cccc5sccc45)CC3)cc21 [Example 85, acetic acid 7-[4-(4-benzo[b]thiophen-4-ylpiperazin-1-yl)butoxy]-2-oxo-3,4-dihydro-2H-quinolin-1-ylmethyl ester]",> 100,–
"CCCCOC(=O)OCN1C(=O)CCc2ccc(OCCCCN3CCN(c4cccc5sccc45)CC3)cc21 [Example 151, carbonic acid 7-[4-(4-benzo[b]thiophen-4-ylpiperazin-1-yl)butoxy]-2-oxo-3,4-dihydro-2H-quinolin-1-ylmethyl ester butyl ester]",> 100,–
"CCCCCCCCCCCCOC(=O)OCn1c(=O)ccc2ccc(OCCCCN3CCN(c4cccc5sccc45)CC3)cc21 [Example 134, carbonic acid 7-[4-(4-benzo[b]thiophen-4-ylpiperazin-1-yl)butoxy]-2-oxo-2H-quinolin-1-ylmethyl ester dodecyl ester]",> 100,> 100
"O=C(CCC(F)(F)F)OCN1C(=O)CCc2ccc(OCCCCN3CCN(c4cccc5sccc45)CC3)cc21 [Example 124, 4,4,4-trifluorobutyric acid 7-[4-(4-benzo[b]thiophen-4-ylpiperazin-1-yl)butoxy]-2-oxo-3,4-dihydro-2H-quinolin-1-ylmethyl ester]",> 100,–
"O=C(OCOc1ccc2ccc(OCCCCN3CCN(c4cccc5sccc45)CC3)cc2n1)OC1CCCCC1 [Example 372, 7-[4-(4-benzo[b]thiophen-4-yl-piperazin-1-yl)-butoxy]-quinolin-2-yloxymethyl cyclohexyl carbonate]",> 100,–
"CCNC(=O)OCn1c(=O)ccc2ccc(OCCCCN3CCN(c4cccc5sccc45)CC3)cc21 [Example 55, N-ethylcarbamic acid 7-[4-(4-benzo[b]thiophen-4-ylpiperazin-1-yl)butoxy]-2-oxo-2H-quinolin-1-ylmethyl ester]",> 100,–
"CCCCCCCCOC(=O)OCN1C(=O)CCc2ccc(OCCCCN3CCN(c4cccc5sccc45)CC3)cc21 [Example 149, carbonic acid 7-[4-(4-benzo[b]thiophen-4-ylpiperazin-1-yl)butoxy]-2-oxo-3,4-dihydro-2H-quinolin-1-ylmethyl ester octyl ester]",> 100,> 100
"CCCCCCCCCCNC(=O)OCN1C(=O)CC(C)(C)c2ccc(OCCCCN3CCN(c4cccc5sccc45)CC3)cc21 [Example 158, N-decylcarbamic acid 7-[4-(4-benzo[b]thiophen-4-ylpiperazin-1-yl)-butoxy]-4,4-dimethyl-2-oxo-3,4-dihydro-2H-quinolin-1-ylmethyl ester]",> 100,> 100
"CCCCCCCCCCCCCCCNC(=O)OCn1c(=O)ccc2ccc(OCCCCN3CCN(c4cccc5sccc45)CC3)cc21 [Example 43, N-pentadecylcarbamic acid 7-[4-(4-benzo[b]thiophen-4-ylpiperazin-1-yl)butoxy]-2-oxo-2H-quinolin-1-ylmethyl ester]",> 100,–
"C=CCCCCCCCCC(=O)OCN1C(=O)CCc2ccc(OCCCCN3CCN(c4cccc5sccc45)CC3)cc21 [Example 114, undec-10-enoic acid 7-[4-(4-benzo[b]thiophen-4-ylpiperazin-1-yl)butoxy]-2-oxo-3,4-dihydro-2H-quinolin-1-ylmethyl ester]",> 100,–

# — US9539252B2, “Piperazine-substituted benzothiophene derivatives as antipsychotic agents” (OTSUKA PHARMACEUTICAL CO., LTD., priority 2011, dated 2017)
